According to US20250099536A1, “PRISTINAMYCIN IA AND FLOPRISTIN COMBINATIONS IN TREATING OR PREVENTING BACTERIAL INFECTIONS” (AIMMAX THERAPEUTICS, INC., priority 2021, published 2025):
Values after ≈ are worked out from the molar mass of the structure shown. Where two headings read alike, the source gives them in different places. Each block holds one compound with its values, some of them ahead of it. Positions of bridges follow the written chain, without caps; N, C: chain ends. Non-standard residues stand in square brackets, D forms with d. Residues, ends and D or L forms follow the SMILES beside them. *: point of attachment. NMePhe(4-NMe2) = CN[C@@H](Cc1ccc(N(C)C)cc1)C(=O)O; Pip(4-oxo) = O=C1CCN[C@H](C(=O)O)C1; Picolinoyl(3-OH) = O=C(c1ncccc1O)*; Phg = N[C@H](C(=O)O)c1ccccc1; dAbu = CC[C@@H](N)C(=O)O

Experiments:
[1] = test system: Neisseria gonorrhoeae; test: Broth microdilution MIC across streptogramin B:A ratios; type: cell-based
[2] = test system: Streptococcus pneumoniae; test: as above; type: cell-based
[3] = test system: Staphylococcus aureus; test: as above; type: cell-based
[4] = test system: Mycoplasma genitalium; test: MIC across streptogramin B:A ratios (CLSI mycoplasma method); type: cell-based; details: 10 strains and isolates
[5] = test system: Streptococcus pneumoniae; test: MBC assay; type: cell-based; details: S. pneumoniae strains evaluated
[6] = test system: S. aureus BAA-1717 strain; test: MIC against the infecting strain of the thigh model; details: Staphylococcus aureus, BAA1717

MIC ([1]; Neisseria gonorrhoeae, ATCC49226, strain ATCC 49226, read-out: MIC): 0.5 µg/mL
MIC ([1]; Neisseria gonorrhoeae, strain CDC 0167, read-out: MIC): 16 µg/mL
MIC ([1]; Neisseria gonorrhoeae, strain CDC 0175, read-out: MIC): 16 µg/mL
MIC ([1]; Neisseria gonorrhoeae, strain CDC 0177, read-out: MIC): 4 µg/mL
MIC ([1]; Neisseria gonorrhoeae, strain CDC 0181, read-out: MIC): > 16 µg/mL
MIC ([1]; Neisseria gonorrhoeae, strain CDC 0194, read-out: MIC): 0.5 µg/mL
MIC ([1]; Neisseria gonorrhoeae, strain MMX 6921, read-out: MIC): 16 µg/mL
MIC ([1]; Neisseria gonorrhoeae, strain WHO F, read-out: MIC): 0.12 µg/mL
MIC ([1]; Neisseria gonorrhoeae, strain WHO G, read-out: MIC): 0.25 µg/mL
MIC ([1]; Neisseria gonorrhoeae, strain WHO K, read-out: MIC): 0.5 µg/mL
MIC ([1]; Neisseria gonorrhoeae, strain WHO L, read-out: MIC): 0.5 µg/mL
MIC ([1]; Neisseria gonorrhoeae, strain WHO M, read-out: MIC): 0.5 µg/mL
MIC ([1]; Neisseria gonorrhoeae, strain WHO N, read-out: MIC): 0.25 µg/mL
MIC ([1]; Neisseria gonorrhoeae, strain WHO O, read-out: MIC): 0.5 µg/mL
MIC ([1]; Neisseria gonorrhoeae, strain WHO P, read-out: MIC): 8 µg/mL
MIC ([1]; Neisseria gonorrhoeae, strain WHO U, read-out: MIC): 8 µg/mL
MIC ([1]; Neisseria gonorrhoeae, strain WHO V, read-out: MIC): > 16 µg/mL
MIC ([1]; Neisseria gonorrhoeae, strain WHO W, read-out: MIC): 0.5 µg/mL
MIC ([1]; Neisseria gonorrhoeae, strain WHO X, read-out: MIC): 1 µg/mL
MIC ([1]; Neisseria gonorrhoeae, strain WHO Y, read-out: MIC): 1 µg/mL
SMILES: CC[C@H]1OC(=O)[C@H](C)[C@@H](O[C@H]2C[C@@](C)(OC)[C@@H](O)[C@H](C)O2)[C@H](C)[C@@H](O[C@@H]2O[C@H](C)C[C@H](N(C)C)[C@H]2O)[C@](C)(O)C[C@@H](C)CN(C)[C@H](C)[C@@H](O)[C@]1(C)O [AZI, Azithromycin, reference compound]

MIC ([2]; strain ATCC 49619): 1 µg/mL
MIC ([2]; strain ATCC 700677): 32 µg/mL
MIC ([2]; strain MMX 3031): 0.5 µg/mL
MIC ([2]; strain MMX 3033): 2 µg/mL
MIC ([2]; strain MMX 4937): 1 µg/mL
MIC ([3]; strain ATCC 29213): 8 µg/mL
MIC ([3]; strain ATCC BAA 977): 16 µg/mL
MIC ([3]; strain ATCC BAA-976): 8 µg/mL
MIC ([3]; strain MMX 2336): 8 µg/mL
MIC ([3]; strain MMX 3035): >64 µg/mL
MIC ([3]; strain MMX 3037): >64 µg/mL
MIC ([3]; strain MMX 3095): 8 µg/mL
MIC ([3]; strain MMX 3098): 8 µg/mL
MIC ([3]; strain MMX 3885): 8 µg/mL
MIC ([3]; strain MMX 3983): >64 µg/mL
MIC ([3]; strain MMX 4670): >64 µg/mL
MIC ([3]; strain MMX 5787): >64 µg/mL
MIC ([3]; strain NRS 271): 8 µg/mL
MIC ([3]; strain NRS 382): >64 µg/mL
MIC ([3]; strain NRS 384): 8 µg/mL
MIC ([1]; strain ATCC 49226): >64 µg/mL
MIC ([1]; strain CDC 0167): >64 µg/mL
MIC ([1]; strain CDC 0175): >64 µg/mL
MIC ([1]; strain CDC 0177): >64 µg/mL
MIC ([1]; strain CDC 0181): >64 µg/mL
MIC ([1]; strain CDC 0194): 32 µg/mL
MIC ([1]; strain MMX 6921): >64 µg/mL
MIC ([1]; strain WHO F): 32 µg/mL
MIC ([1]; strain WHO G): >64 µg/mL
MIC ([1]; strain WHO K): >64 µg/mL
MIC ([1]; strain WHO L): 64 µg/mL
MIC ([1]; strain WHO M): 64 µg/mL
MIC ([1]; strain WHO N): >64 µg/mL
MIC ([1]; strain WHO O): 64 µg/mL
MIC ([1]; strain WHO P): >64 µg/mL
MIC ([1]; strain WHO U): >64 µg/mL
MIC ([1]; strain WHO V): >64 µg/mL
MIC ([1]; strain WHO W): 64 µg/mL
MIC ([1]; strain WHO X): >64 µg/mL
MIC ([1]; strain WHO Y): 32 µg/mL
MIC range [4]: 2 to 16 µg/mL
SMILES: CC[C@H]1NC(=O)[C@@H](NC(=O)c2ncccc2O)[C@@H](C)OC(=O)[C@H](c2ccccc2)NC(=O)[C@@H]2CC(=O)CCN2C(=O)[C@H](Cc2ccc(N(C)C)cc2)N(C)C(=O)[C@@H]2CCCN2C1=O [CBA1 100:0, pristinamycin IA] ({Picolinoyl(3-OH)}-T[dAbu]P[NMePhe(4-NMe2)][Pip(4-oxo)][Phg]; ester 1-C)
Strains against which bactericidal (MBC divided by MIC ≤4) [5]: 2 out of the 4

The next lines start with the compound.

SMILES: CC1=C\[C@@H](O)C[C@@H](F)Cc2nc(co2)C(=O)N2CCC[C@@H]2C(=O)O[C@H](C(C)C)[C@H](C)/C=C/C(=O)NC\C=C\1 [CBA1 0:100, flopristin]
MIC ([2]; strain ATCC 49619): 2 µg/mL
MIC ([2]; strain ATCC 700677): 8 µg/mL
MIC ([2]; strain MMX 3031): 4 µg/mL
MIC ([2]; strain MMX 3033): 4 µg/mL
MIC ([2]; strain MMX 4937): 2 µg/mL
MIC ([3]; strain ATCC 29213): 1 µg/mL
MIC ([3]; strain ATCC BAA 977): 1 µg/mL
MIC ([3]; strain ATCC BAA-976): 0.5 µg/mL
MIC ([3]; strain MMX 2336): 0.5 µg/mL
MIC ([3]; strain MMX 3035): 0.5 µg/mL
MIC ([3]; strain MMX 3037): 0.25 µg/mL
MIC ([3]; strain MMX 3095): 1 µg/mL
MIC ([3]; strain MMX 3098): 1 µg/mL
MIC ([3]; strain MMX 3885): 0.5 µg/mL
MIC ([3]; strain MMX 3983): 0.5 µg/mL
MIC ([3]; strain MMX 4670): 0.25 µg/mL
MIC ([3]; strain MMX 5787): 2 µg/mL
MIC ([3]; strain NRS 271): 2 µg/mL
MIC ([3]; strain NRS 382): 1 µg/mL
MIC ([3]; strain NRS 384): 1 µg/mL
MIC ([1]; strain ATCC 49226): 0.12 µg/mL
MIC ([1]; strain CDC 0167): 0.03 µg/mL
MIC ([1]; strain CDC 0175): 0.03 µg/mL
MIC ([1]; strain CDC 0177): 0.06 µg/mL
MIC ([1]; strain CDC 0181): 0.12 µg/mL
MIC ([1]; strain CDC 0194): 0.06 µg/mL
MIC ([1]; strain MMX 6921): 0.12 µg/mL
MIC ([1]; strain WHO F): 0.015 µg/mL
MIC ([1]; strain WHO G): 0.12 µg/mL
MIC ([1]; strain WHO K): 0.25 µg/mL
MIC ([1]; strain WHO L): 0.12 µg/mL
MIC ([1]; strain WHO M): 0.12 µg/mL
MIC ([1]; strain WHO N): 0.12 µg/mL
MIC ([1]; strain WHO O): 0.12 µg/mL
MIC ([1]; strain WHO P): 0.5 µg/mL
MIC ([1]; strain WHO U): 0.12 µg/mL
MIC ([1]; strain WHO V): 0.25 µg/mL
MIC ([1]; strain WHO W): 0.12 µg/mL
MIC ([1]; strain WHO X): 0.12 µg/mL
MIC ([1]; strain WHO Y): 0.12 µg/mL
MIC range [4]: 0.015 to 0.5 µg/mL
Strains against which bactericidal (MBC divided by MIC ≤4) [5]: 5 out of the 5

SMILES: CC(=O)NC[C@H]1CN(c2ccc(N3CCOCC3)c(F)c2)C(=O)O1 [linezolid]
MIC [6]: 2 µg/mL (≈ 5.93 µM)

SMILES: CN[C@H](CC(C)C)C(=O)N[C@H]1C(=O)N[C@@H](CC(N)=O)C(=O)N[C@H]2C(=O)N[C@H]3C(=O)N[C@H](C(=O)N[C@H](C(=O)O)c4cc(O)cc(O)c4-c4cc3ccc4O)[C@H](O)c3ccc(c(Cl)c3)Oc3cc2cc(c3O[C@@H]2O[C@H](CO)[C@@H](O)[C@H](O)[C@H]2O[C@H]2C[C@](C)(N)[C@H](O)[C@H](C)O2)Oc2ccc(cc2Cl)[C@H]1O [vancomycin]
MIC [6]: 1 µg/mL (≈ 0.69 µM)
